Measured values reported in patent publication US20090143279A1 (priority 2007, published 2009).
“And” between values parts separate entries of the source, which are not always exact repeats. Equal entries are not always repeated. Where two headings read alike, the source gives them in different places.

Assays:
cytochrome c = type: cell-based, mouse
[1] = tested on: mitochondrial membrane potential; type: cell-based, mouse
reactive oxygen species = type: cell-based, mouse
[2] = tested on: cellular dehydrogenase activity
[3] = composite Z-score vs DMSO, Conc 20 μM
[4] = composite Z-score vs mock-treated (DMSO) wells, Conc 20 μM
[5] = Table 4, C2C12 myotubes, 48 h, composite Z-score
[6] = Table 4, C2C12 myotubes, 48 h, JC-1, composite Z-score

Row | Compound | cyt c (cytochrome c) | ΔΨm [1] | ROS (reactive oxygen species) | Viability (C2C12 myotubes) | MTT [2] | other results
1 | C[C@@]1(O)CCOC(=O)C1 (racemic) [mevalonic-DL-acid lactone] | −0.252 | −0.183 | – | – | – | –
2 | C[C@@H](N)[C@@H](O)c1ccccc1 [1S,2R-phenylpropanolamine] | – | −0.137 | 0.721 | 0.296 | −1.507 | cyt c (cytochrome c; [3]): 0.280
3 | O=C(O)CCCOc1ccc(Cl)cc1Cl [2,4-dichlorophenoxybutyric acid] | 0.711 | −0.479 | 0.758 | 0.337 | −1.368 | –
4 | C[C@]12CC[C@@H](O)C[C@H]1CC[C@@H]1[C@@H]2CC[C@]2(C)C(=O)CC[C@@H]12 [3-alpha-hydroxy-5-beta-androstan-17-one] | 0.285 | −1.010 | 1.400 | – | −1.534 | –
5 | CC(C)NC[C@@H](O)COc1ccc(CC(N)=O)cc1 [(R)-(+)-atenolol] | −0.033 | −0.573 | 1.639 | −0.846 | −1.053 | –
6 | COc1ccc2cc([C@@H](C)C(=O)[O-])ccc2c1.[Na+] [(R)-naproxen sodium salt] | 0.444 | −0.253 | −0.736 | 0.632 | 0.325 | –
7 | Cc1c(N(C)C)c(=O)n(-c2ccccc2)n1C [amidopyrine] | 0.748 | −0.496 | −0.776 | 0.691 | −0.051 | –
8 | C[C@@H]1[C@H](O)[C@@H](C)/C=C/C=C/C=C/C=C/C=C/C=C/C=C/[C@H](O[C@@H]2O[C@H](C)[C@@H](O)[C@H](N)[C@@H]2O)C[C@@H]2O[C@](O)(C[C@@H](O)C[C@@H](O)[C@H](O)CC[C@@H](O)C[C@@H](O)CC(=O)O[C@H]1C)C[C@H](O)[C@H]2C(=O)O [amphotericin B] | −0.982 | 0.308 | 0.005 | 1.210 | −0.790 | –
9 | CC(=O)[O-].CC(=O)[O-].[Cd+2] [cadmium acetate] | −2.166 | −1.276 | −1.066 | −1.393 | −1.896 | –
10 | CC1(C)C(=O)C=C[C@@]2(C)C1=C(O)C(=O)[C@]1(C)[C@@H]2CC[C@@]2(C)[C@H](c3ccoc3)C[C@H]3O[C@]321 [cedrelone] | – | – | – | – | – | ROS (reactive oxygen species; [4]): −3.982; cyt c (cytochrome c; [4]): −5.998; ΔΨm [1, 4]: −3.459; Viability (C2C12 myotubes; [4]): −4.680; MTT [2, 4]: −6.617
11 | CC1=C(O)C(=O)C=C2C1=CC=C1[C@@]2(C)CC[C@@]2(C)[C@@H]3C[C@](C)(C(=O)O)CC[C@]3(C)CC[C@]12C [celastrol] | – | – | – | – | – | ROS (reactive oxygen species; [3]): −2.732; cyt c (cytochrome c; [3]): −5.979; ΔΨm [1, 3]: −3.520; Viability (C2C12 myotubes; [3]): −4.797; MTT [2, 3]: −6.584
12 | Cc1cc(C2CCCCC2)n(O)c(=O)c1.NCCO [ciclopirox ethanolamine] | −0.351 | 2.994 | −1.968 | 0.101 | −2.239 | –
13 | Clc1ccccc1C(c1ccccc1)(c1ccccc1)n1ccnc1 [clotrimazole] | – | – | 2.521 | 0.099 | – | –
14 | COc1cc2c(cc1OC)[C@@H]1C(=O)c3ccc4c(c3O[C@@H]1CO2)C=CC(C)(C)O4 [deguelin(−), reference compound] | – | – | – | – | – | ROS (reactive oxygen species; [5]): 0.426; ΔΨm [1, 6]: 1.451; Viability (C2C12 myotubes; [5]): −0.940; MTT [2, 5]: −4.052
15 | C[C@@H]1CC[C@@]23CCC4(C)[C@@](C=CC5[C@@]6(C)CC[C@H](O)C(C)(C)C6CC[C@]54C)(OC2=O)C3[C@H]1C (some centres unmarked) [dehydro (11,12)ursolic acid lactone] | – | −0.429 | 0.385 | −0.003 | 0.402 | cyt c (cytochrome c; normalized composite Z-score vs mock-treated (DMSO) wells, Conc 20 μM): −0.175
16 | CC(C)=CCCC1(C)C=Cc2c(O)c3c(c(CC=C(C)C)c2O1)OC12C(=CC4CC1C(C)(C)OC2(C/C=C(/C)C(=O)O)C4O)C3=O (centres unmarked) [dihydrogambogic acid] | – | – | – | – | – | ROS (reactive oxygen species; [4]): −2.239; cyt c (cytochrome c; [4]): −5.191; ΔΨm [1, 4]: −3.431; Viability (C2C12 myotubes; [4]): −5.468; MTT [2, 4]: −6.208
17 | OCCN(CCO)c1nc(N2CCCCC2)c2nc(N(CCO)CCO)nc(N3CCCCC3)c2n1 [dipyridamole] | 0.377 and 0.276 | 0.298 and 0.474 | – | 2.069 and 1.042 | – | –

Row | Compound | cyt c (cytochrome c) | ΔΨm [1] | ROS (reactive oxygen species) | Viability (C2C12 myotubes) | MTT [2] | other results
18 | Oc1ccc([C@H]2Oc3cc(O)cc(O)c3C[C@H]2O)cc1 [epiafzelechin(2r,3r)(−), reference compound] | – | – | – | – | – | ROS (reactive oxygen species; [5]): 1.019; ΔΨm [1, 6]: −3.118; Viability (C2C12 myotubes; [5]): −0.719; MTT [2, 5]: −0.486
19 | COc1ccc2c(c1)CC[C@@H]1[C@@H]2CC[C@]2(C)[C@@H](O)[C@H](O)C[C@@H]12 [estriol methyl ether] | – | −0.046 | 0.299 | 0.054 | −1.611 | cyt c (cytochrome c; [3]): 0.241
20 | CC(C)n1c(/C=C/C(O)CC(O)CC(=O)O)c(-c2ccc(F)cc2)c2ccccc21 (centres unmarked) [fluvastatin, reference compound] | – | – | – | – | – | MTT activity ([2]; screen, FIG. 9a, in words): strong decreases
21 | CC(=O)N(CC(O)CO)c1c(I)c(C(=O)NCC(O)CO)c(I)c(C(=O)NCC(O)CO)c1I (centres unmarked) [iohexol] | 0.080 | −0.970 | 0.568 | −0.374 | −1.085 | –
22 | N[C@@H](C(=O)N[C@@H]1C(=O)N2C(C(=O)O)=C(Cl)CC[C@H]12)c1ccccc1 [loracarbef] | 0.622 | −0.229 | −0.236 | 0.317 | −0.158 | –
23 | CC[C@H](C)C(=O)O[C@H]1C[C@@H](C)C=C2C=C[C@H](C)[C@H](CC[C@@H]3C[C@@H](O)CC(=O)O3)[C@H]21 [lovastatin, reference compound] | – | – | – | – | – | cyt c (composite Z-score vs DMSO) (cytochrome c): −1.628; MTT activity [2]: strong decreases
24 | COC(=O)Nc1nc2ccc(SC(C)C)cc2[nH]1 [methiazole, reference compound] | – | – | – | – | – | ROS (reactive oxygen species; [5]): −2.515; ΔΨm [1, 6]: 0.040; Viability (C2C12 myotubes; [5]): −0.683; MTT [2, 5]: −0.654
25 | CC(=O)[C@H]1CC[C@H]2[C@@H]3CC=C4C[C@@H](O)CC[C@]4(C)[C@H]3CC[C@]12C [pregnenolone] | – | 0.542 | – | – | – | –
26 | C=C(C)[C@H]1Cc2c(ccc3c2O[C@@H]2COc4cc(OC)c(OC)cc4[C@@H]2C3=O)O1 [rotenone, reference compound] | – | – | – | – | – | MTT activity ([2]; assay control, FIG. 3-2): inhibited
27 | CCC(C)(C)C(=O)O[C@H]1C[C@@H](C)C=C2C=C[C@H](C)[C@H](CC[C@@H]3C[C@@H](O)CC(=O)O3)[C@H]21 [simvastatin, reference compound] | – | – | – | – | – | MTT activity ([2]; screen, FIG. 9a, in words): strong decreases
28 | CN[C@@H]1C[C@H]2O[C@@](C)([C@@H]1OC)n1c3ccccc3c3c4c(c5c6ccccc6n2c5c31)C(=O)NC4 [staurosporine, reference compound] | – | – | – | – | – | cell death (calcein) (C2C12 myotubes; assay control, FIG. 3-1): cell death in a dose dependent manner
29 | CC1=C(CC(=O)O)c2cc(F)ccc2/C1=C\c1ccc([S+](C)[O-])cc1 (centres unmarked) [sulindac] | – | – | – | 0.777 | – | –
30 | (−)-MK 801 | – | −0.786 | – | – | – | –
31 | amyleine | – | – | – | – | −0.719 | –
32 | methyl benzethonium chloride | – | 0.480 | −1.501 | −2.690 | −4.304 | –
33 | trisodium ethylenediamine tetracetate | – | 0.474 | −0.436 | −0.946 | −1.123 | –
